In patent publication US20110039825A1, “LIGANDS OF ALPHA-ADRENOCEPTORS, DOPAMINE, HISTAMINE, IMIDAZOLINE AND SEROTONIN RECEPTORS AND THEIR USE” (Alla Chem, LLC, priority 2007, published 2011):

How the values were obtained:
imidazoline receptor I2 = assay: radioligand binding to imidazoline receptor I2 ([3H] Idazoxan); set-up: species or system rat; conditions: 10 μM ligand
Procedure: Determination of investigated compounds' binding to imidazoline I2 receptor is carried out according to the method described in [Brown C M, MacKinnon A C, McGrath J C, Spedding M and Kilpatrick A T, a2-Adrenoceptor subtypes and imidazoline-like binding in the rat brain. Br J. Pharmacol. 99:803-809, 1990]. […] Idazoxan is used as positive control.

recombinant human 5-HT1A = molecular target: T1, recombinant human 5-HT1A (Homo sapiens, UniProt P08908); assay: radioligand binding to serotonin receptor 5-HT1A ([3H] 8-OH-DPAT); conditions: for 5-HT1A % inhibition: 10 μM ligand; for inhibition at 1 µM: ligand concentration 1 μM
T1 construct: expressed in transfected cells; host or cells: CHO
T1 sequence (P08908 1-422): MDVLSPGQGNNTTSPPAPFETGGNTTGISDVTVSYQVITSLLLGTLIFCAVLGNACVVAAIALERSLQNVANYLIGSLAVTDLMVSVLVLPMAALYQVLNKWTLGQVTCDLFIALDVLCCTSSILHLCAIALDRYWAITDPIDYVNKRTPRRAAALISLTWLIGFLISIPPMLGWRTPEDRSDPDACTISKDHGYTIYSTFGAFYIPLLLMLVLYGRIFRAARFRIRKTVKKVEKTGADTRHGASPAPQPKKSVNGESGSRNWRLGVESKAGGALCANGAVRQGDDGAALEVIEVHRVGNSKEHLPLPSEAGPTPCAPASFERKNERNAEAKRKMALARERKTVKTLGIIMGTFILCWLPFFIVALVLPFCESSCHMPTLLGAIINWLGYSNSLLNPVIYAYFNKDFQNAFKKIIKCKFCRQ
Excerpt: J Pharmacol Exp Ther. 306(1): 301-309, 2003]. […] Metergoline is used as positive control.

[1] = molecular target: T2, recombinant human 5-HT2B receptor (Homo sapiens, UniProt P41595); assay: radioligand binding to serotonin receptor 5-HT2B ([3H] Lysergic acid diethylamide)
T2 construct: expressed in transfected cells; host or cells: CHO-K1

[2] = molecular target: T3, recombinant human 5-HT6 receptor (Homo sapiens, UniProt P50406); assay: radioligand binding to serotonin receptor 5-HT6 ([3H] Lysergic acid diethylamide); conditions: ligand concentration 1 μM; read-out: 5-HT6 % inhibition
T3 construct: expressed in transfected cells; host or cells: HeLa
Excerpt: Mol. Pharmacol. 43:320-327, 1993]. […] Methiothepin is used as positive control.

human α2A receptor = molecular target: T4, human α2A receptor (Homo sapiens, UniProt P08913); assay: radioligand binding to adrenergic receptor α2A ([3H] MK-912); conditions: 10 μM ligand
T4 construct: expressed in transfected cells; host or cells: Sf9
T4 sequence (P08913 1-465): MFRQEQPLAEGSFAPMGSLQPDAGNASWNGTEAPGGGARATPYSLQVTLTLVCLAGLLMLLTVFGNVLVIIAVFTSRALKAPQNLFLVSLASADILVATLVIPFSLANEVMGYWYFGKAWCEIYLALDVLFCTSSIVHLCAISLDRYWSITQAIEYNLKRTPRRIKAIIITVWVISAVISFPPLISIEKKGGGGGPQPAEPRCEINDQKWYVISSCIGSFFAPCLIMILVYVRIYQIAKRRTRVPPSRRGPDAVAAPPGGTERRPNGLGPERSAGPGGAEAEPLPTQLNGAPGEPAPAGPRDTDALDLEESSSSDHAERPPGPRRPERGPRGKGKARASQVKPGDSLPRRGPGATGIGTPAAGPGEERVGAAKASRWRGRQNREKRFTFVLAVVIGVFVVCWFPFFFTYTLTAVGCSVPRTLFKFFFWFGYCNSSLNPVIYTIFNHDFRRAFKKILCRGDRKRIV
Excerpt: J Pharmacol ExpTher. […] Yohimbine is used as positive control.

[3] = molecular target: T5, recombinant human 5-HT2C receptor (Homo sapiens, UniProt P28335); assay: radioligand binding to serotonin receptor 5-HT2C ([3H] Mesulergine); conditions: ligand concentration 1 μM
T5 construct: expressed in transfected cells; host or cells: CHO-K1
T5 sequence (P28335 33-458): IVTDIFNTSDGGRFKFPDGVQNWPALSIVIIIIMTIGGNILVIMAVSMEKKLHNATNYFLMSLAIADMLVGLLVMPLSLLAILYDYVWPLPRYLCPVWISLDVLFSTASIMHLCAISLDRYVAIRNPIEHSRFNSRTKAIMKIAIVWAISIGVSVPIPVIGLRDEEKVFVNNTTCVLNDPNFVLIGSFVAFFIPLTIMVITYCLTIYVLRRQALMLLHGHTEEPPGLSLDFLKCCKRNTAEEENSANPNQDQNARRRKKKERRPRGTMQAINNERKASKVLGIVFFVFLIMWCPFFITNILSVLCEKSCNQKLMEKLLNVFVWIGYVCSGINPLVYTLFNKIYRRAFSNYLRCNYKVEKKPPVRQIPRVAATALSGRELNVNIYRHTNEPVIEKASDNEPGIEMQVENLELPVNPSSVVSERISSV
Excerpt: J. Neurochem. 69: 1449-1458, 1997]. […] SB242084 is used as positive control.

human 5-HT7 receptor = molecular target: T6, human 5-HT7 receptor (Homo sapiens, UniProt P34969); assay: radioligand binding to serotonin receptor 5-HT7 ([3H] Lysergic acid diethylamide); conditions: 10 μM ligand
T6 construct: expressed in transfected cells; host or cells: CHO
Excerpt: For this purpose sDNA of human 5-HT7 receptor is expressed in CHO cells as it was described in [Shen Y, Monsma F J Jr, Metcalf M A, Jose P A, Hamblin M W, and Sibley DR. […] J. Biol. Chem. 1993, 268, 18200-18204]. […] J. Pharmacol. Exp. Ther. 1994, 268:1403-1410]. […] Methiothepin is used as positive control.

T6 sequence (P34969 whole entry): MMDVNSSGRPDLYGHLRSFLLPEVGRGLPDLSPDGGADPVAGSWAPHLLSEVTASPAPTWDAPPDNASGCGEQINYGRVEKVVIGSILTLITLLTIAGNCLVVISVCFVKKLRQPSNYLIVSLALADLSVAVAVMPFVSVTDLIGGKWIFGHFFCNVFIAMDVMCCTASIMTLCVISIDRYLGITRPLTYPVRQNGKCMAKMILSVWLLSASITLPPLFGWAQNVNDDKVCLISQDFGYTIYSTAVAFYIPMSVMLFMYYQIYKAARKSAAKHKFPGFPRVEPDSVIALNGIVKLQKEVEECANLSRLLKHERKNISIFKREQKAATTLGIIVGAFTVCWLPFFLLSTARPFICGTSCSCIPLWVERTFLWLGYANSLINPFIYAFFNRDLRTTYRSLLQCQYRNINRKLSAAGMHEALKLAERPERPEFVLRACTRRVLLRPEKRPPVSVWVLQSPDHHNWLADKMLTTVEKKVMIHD
T2 sequence (P41595 whole entry): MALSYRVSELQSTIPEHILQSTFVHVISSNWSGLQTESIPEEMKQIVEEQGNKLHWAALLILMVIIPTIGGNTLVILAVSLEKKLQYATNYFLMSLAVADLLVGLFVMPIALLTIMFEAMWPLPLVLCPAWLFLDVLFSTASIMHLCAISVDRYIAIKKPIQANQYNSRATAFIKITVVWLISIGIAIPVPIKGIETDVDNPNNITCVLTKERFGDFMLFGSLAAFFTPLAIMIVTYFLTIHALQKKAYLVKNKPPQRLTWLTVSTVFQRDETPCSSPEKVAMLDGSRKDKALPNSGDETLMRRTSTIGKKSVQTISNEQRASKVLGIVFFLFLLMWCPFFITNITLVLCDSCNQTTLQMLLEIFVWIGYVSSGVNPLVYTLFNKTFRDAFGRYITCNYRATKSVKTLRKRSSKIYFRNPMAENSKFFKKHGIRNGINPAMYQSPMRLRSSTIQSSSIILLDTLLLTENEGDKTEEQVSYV
T3 sequence (P50406 whole entry): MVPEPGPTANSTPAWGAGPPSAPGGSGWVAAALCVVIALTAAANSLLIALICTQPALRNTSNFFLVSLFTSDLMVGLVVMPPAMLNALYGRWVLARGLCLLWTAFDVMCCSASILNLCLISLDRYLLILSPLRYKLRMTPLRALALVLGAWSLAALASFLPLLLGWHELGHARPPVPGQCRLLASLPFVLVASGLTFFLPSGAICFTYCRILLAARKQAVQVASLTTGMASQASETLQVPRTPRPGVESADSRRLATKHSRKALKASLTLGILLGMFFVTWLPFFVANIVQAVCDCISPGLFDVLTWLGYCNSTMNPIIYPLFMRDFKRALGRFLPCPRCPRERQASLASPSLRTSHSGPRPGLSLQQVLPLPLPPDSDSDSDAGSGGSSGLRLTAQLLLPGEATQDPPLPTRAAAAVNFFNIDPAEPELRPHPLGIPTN

With `Cc1ccc2c(c1)[C@@H]1CN(C)CCC[C@@H]1N2CCc1cccnc1.Cl.Cl.Cl` (relative stereo) [1.6.1(1)•3HCl] as the compound, how does the “imidazoline I2 receptor % inhibition” value (imidazoline receptor I2) read?
The value was 80%.

What does the source list for `Cc1ccc2c(c1)c1c(n2CCc2ccccc2)CCN(C)C1.Cl` [1.1.2(1-2)•HCl, 2,8-dimethyl-5-phenethyl-1,2,3,4-tetrahydro-1H-pyrido[4,3-b]indole hydrochloride]?
imidazoline I2 receptor % inhibition (imidazoline receptor I2): 93%; 5-HT1A % inhibition (recombinant human 5-HT1A): 84%; IC50 [1]: 16.6 nM; Ki [1]: 10.6 nM; nH 5-HT2B [1]: 0.868; 5-HT2B % inhibition ([1]; 10 μM ligand): 100%

Which inhibition at 1 µM [2] does the source give for `Cc1ccc2c(c1)c1c(n2CCc2ccncc2)CCCN(C)C1` [1.2.2(5-2)] here?
Its inhibition at 1 µM is 84%.

What about the inhibition at 1 µM (recombinant human 5-HT1A) of the same compound?
The inhibition at 1 µM was 13%.

And the “α-Adrenoceptor α2A, % inhibition” value (human α2A receptor)?
Its value is 74%.

And the inhibition at 1 µM [3]?
Its inhibition at 1 µM is 92%.

With `Cc1ccc2c(c1)c1c(n2Cc2ccccc2)CCCN(C)C1.Cl` [1.10(4)•HCl] as the compound, how does the 5-HT7 % inhibition (human 5-HT7 receptor) read?
Its 5-HT7 % inhibition is 75%.

What about the 5-HT1A % inhibition (recombinant human 5-HT1A) of the same compound?
The 5-HT1A % inhibition was 19%.

`CN1CCc2c(c3cc(C(F)(F)F)ccc3n2CCc2ccccc2)C1.Cl` [1.1.2(1-7)•HCl, 2-methyl-8-trifluoromethyl-5-phenethyl-1,2,3,4-tetrahydro-1H-pyrido[4,3-b]indole] was tested. Which 5-HT7 % inhibition (human 5-HT7 receptor) did it give?
Its 5-HT7 % inhibition is 94%.

What does the source list for `CN1CCc2c(c3cc(F)ccc3n2CCCc2ccccc2)C1.Cl` [1.3.3(8)•HCl]?
5-HT7 % inhibition (human 5-HT7 receptor): 83%; 5-HT1A % inhibition (recombinant human 5-HT1A): −4%

For `Cc1ccc(CCn2c3c(c4cc(F)ccc42)CN(C)CCC3)cn1` [1.2.2(4-2)•2HCl], which inhibition at 1 µM (recombinant human 5-HT1A) is on record?
The inhibition at 1 µM was 31%.

For `Cc1ccc2c(c1)c1c(n2CCc2ccc(C)nc2)CCCN(C)C1` [1.2.2(4-1)], which “imidazoline I2 receptor % inhibition” value (imidazoline receptor I2) is on record?
The value was 80%.
